Experimental data as given in PubChem BioAssay AID652111 (The Scripps Research Institute Molecular Screening Center, 2013).
The source made the active and inactive calls.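 Rule for the calls: active = IC50 below 50 µM against PP5; inactive = the rest.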

Molecular target: Serine/threonine-protein phosphatase 5 (Homo sapiens) (UniProt P53041)
Assay: human PP5 catalytic domain inhibitor potency – biochemical, radiolabel, glycogen phosphorylase substrate, powder samples, selectivity assay for PP1 inhibitor project, late-stage follow-up (AID 652111)
Conditions: recombinant PP5c, 32P/33P phosphorylase dephosphorylation, scintillation

Sequence of Serine/threonine-protein phosphatase 5 (Homo sapiens) (P53041 whole entry, looked up, the tested form may be a part): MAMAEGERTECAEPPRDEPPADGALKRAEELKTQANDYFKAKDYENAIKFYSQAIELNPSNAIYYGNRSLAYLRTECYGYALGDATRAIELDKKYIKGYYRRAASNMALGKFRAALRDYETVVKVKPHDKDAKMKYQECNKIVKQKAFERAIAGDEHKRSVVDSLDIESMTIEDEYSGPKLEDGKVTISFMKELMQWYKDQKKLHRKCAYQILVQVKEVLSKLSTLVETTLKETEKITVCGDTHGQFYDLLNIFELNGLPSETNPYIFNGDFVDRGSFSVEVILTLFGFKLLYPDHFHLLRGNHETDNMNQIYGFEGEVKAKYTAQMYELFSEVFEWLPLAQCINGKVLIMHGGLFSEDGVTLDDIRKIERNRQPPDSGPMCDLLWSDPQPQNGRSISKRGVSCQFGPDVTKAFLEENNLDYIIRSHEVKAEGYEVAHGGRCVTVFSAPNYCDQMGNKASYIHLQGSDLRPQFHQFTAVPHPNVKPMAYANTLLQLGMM

SMILES | IC50
CCn1c2ccccc2c2cc(NC(=O)COC(=O)c3ccc(NC(=O)CC#N)cc3)ccc21 | > 50 µM (inactive)
CCOC(=O)c1sc2nc3c(SCC(=O)O)cc(C(=O)c4cc(F)ccc4O)cn3c(=O)c2c1C | < 50 µM
N#Cc1c(-c2ccc(Cl)cc2)cc(-c2cccs2)nc1SCC(=O)O | < 50 µM
CN1CCN(C(c2ccccn2)c2cc(Cl)c3cccnc3c2O)CC1 (stereo not given) | > 50 µM (inactive)
COc1ccc(NC(=O)C2C3CCC(O3)C2C(=O)O)c(OC)c1 (stereo not given) | 4.16 µM
